We go through one molecule from ChEMBL document CHEMBL1121511, “Antileukemic compounds derived from the chemical modification of macrocyclic trichothecenes. 1. Derivatives of verrucarin A” (1980).

The assay relates to P388. The assay is described as follows: Antileukemic activity in vivo against P-388 mouse leukemia cell expressed as Dose. The format is functional.

SMILES strings stand for the structures.

Turning to `CC(=O)OC1C(=O)OC[C@]23CC[C@H](C)C[C@H]2O[C@@H]2C[C@@H](OC(=O)/C=C\C=C\C(=O)OCCC1C)[C@@]3(C)C21CO1` (stereo partly specified) [VERRUCARIN A ACETATE], the Dose is over 1.
